Species on record: Rattus norvegicus
Test: DrugMatrix - Regimen: Daily Repeat
Assay type: toxicity, organism-based, Sprague-Dawley
Parameters: regimen Daily Repeat, gender Male, age 6-8 weeks
Conditions: in vivo, iv, 0 mg/kg, dose level Control, vehicle 100 % SALINE; for ABSOLUTE BASOPHIL / ABSOLUTE EOSINOPHIL / ABSOLUTE LYMPHOCYTE / ABSOLUTE MONOCYTE / ABSOLUTE SEGMENTED NEUTROPHIL / BASOPHIL / EOSINOPHIL / ERYTHROCYTE COUNT / HEMATOCRIT / HEMOGLOBIN / LEUKOCYTE COUNT / LYMPHOCYTE / MEAN CORPUSCULAR HEMOGLOBIN / MEAN CORPUSCULAR HEMOGLOBIN CONCENTRATION / MEAN CORPUSCULAR VOLUME / MONOCYTE / NEUTROPHIL / NUCLEATED RED BLOOD CELLS / PLATELET COUNT: tissue Blood; for ALANINE AMINOTRANSFERASE / ALBUMIN / ALKALINE PHOSPHATASE / ASPARTATE AMINOTRANSFERASE / BLOOD UREA NITROGEN / CARBON DIOXIDE / CHLORIDE / CHOLESTEROL / CREATINE PHOSPHOKINASE / CREATININE / GLUCOSE / LACTATE DEHYDROGENASE / LIPASE / PHOSPHORUS / POTASSIUM / SODIUM / TOTAL BILIRUBIN / TOTAL PROTEIN / URIC ACID: tissue Plasma

For `CN(N=O)C(=O)N[C@@H](C=O)[C@@H](O)[C@H](O)[C@H](O)CO` [STREPTOZOCIN], the “ABSOLUTE BASOPHIL” value (72 h, time 3 day) was 0 CELLS/uL, the “ABSOLUTE EOSINOPHIL” value (72 h, time 3 day) was 247.67 CELLS/uL and the “ABSOLUTE LYMPHOCYTE” value (72 h, time 3 day) was 13190.83 CELLS/uL. For the same compound, the “ABSOLUTE MONOCYTE” value (72 h, time 3 day) was 307.67 CELLS/uL, the “ABSOLUTE SEGMENTED NEUTROPHIL” value (72 h, time 3 day) was 1220.5 CELLS/uL and the BASOPHIL (72 h, time 3 day) was 0%. The EOSINOPHIL (72 h, time 3 day) was 1.67%, the “ERYTHROCYTE COUNT” value (72 h, time 3 day) was 5.47 x10E6/uL and the HEMATOCRIT (72 h, time 3 day) was 33.98%. For the same compound, the HEMOGLOBIN (72 h, time 3 day) was 12.65 G/DL, the “LEUKOCYTE COUNT” value (72 h, time 3 day) was 14.97 x10E3/uL and the LYMPHOCYTE (72 h, time 3 day) was 88.17%. For the same compound, the “MEAN CORPUSCULAR HEMOGLOBIN” value (72 h, time 3 day) was 23.17 pg, the “MEAN CORPUSCULAR HEMOGLOBIN CONCENTRATION” value (72 h, time 3 day) was 37.23 G/DL and the “MEAN CORPUSCULAR VOLUME” value (72 h, time 3 day) was 62.25 fL. The MONOCYTE (72 h, time 3 day) was 2%, the NEUTROPHIL (72 h, time 3 day) was 8.17% and the “NUCLEATED RED BLOOD CELLS” value (72 h, time 3 day) was 0 /100WBC. The “PLATELET COUNT” value (72 h, time 3 day) was 1307.17 x10E3/uL, the “ALANINE AMINOTRANSFERASE” value (72 h, time 3 day) was 39.67 u/L and the ALBUMIN (72 h, time 3 day) was 4.08 G/DL. The “ALKALINE PHOSPHATASE” value (72 h, time 3 day) was 383.17 u/L, the “ASPARTATE AMINOTRANSFERASE” value (72 h, time 3 day) was 88.83 u/L and the “BLOOD UREA NITROGEN” value (72 h, time 3 day) was 18.5 mg/dL. For the same compound, the “CARBON DIOXIDE” value (72 h, time 3 day) was 27.5 mmol/L, the CHLORIDE (72 h, time 3 day) was 103 MEQ/L and the CHOLESTEROL (72 h, time 3 day) was 67.33 mg/dL. For the same compound, the “CREATINE PHOSPHOKINASE” value (72 h, time 3 day) was 414.67 u/L, the CREATININE (72 h, time 3 day) was 0.19 mg/dL and the GLUCOSE (72 h, time 3 day) was 149.33 mg/dL. For the same compound, the “LACTATE DEHYDROGENASE” value (72 h, time 3 day) was 536.83 u/L, the LIPASE (72 h, time 3 day) was 8.83 u/L and the PHOSPHORUS (72 h, time 3 day) was 11.13 mg/dL. The POTASSIUM (72 h, time 3 day) was 6.23 MEQ/L, the SODIUM (72 h, time 3 day) was 144.42 MEQ/L and the “TOTAL BILIRUBIN” value (72 h, time 3 day) was 0.18 mg/dL. The “TOTAL PROTEIN” value (72 h, time 3 day) was 5.57 G/DL, the “URIC ACID” value (72 h, time 3 day) was 1.23 mg/dL and the “ABSOLUTE BASOPHIL” value (120 h, time 5 day) was 0 CELLS/uL. The “ABSOLUTE EOSINOPHIL” value (120 h, time 5 day) was 158.83 CELLS/uL, the “ABSOLUTE LYMPHOCYTE” value (120 h, time 5 day) was 13517.17 CELLS/uL and the “ABSOLUTE MONOCYTE” value (120 h, time 5 day) was 352.67 CELLS/uL. The “ABSOLUTE SEGMENTED NEUTROPHIL” value (120 h, time 5 day) was 1104.67 CELLS/uL, the BASOPHIL (120 h, time 5 day) was 0% and the EOSINOPHIL (120 h, time 5 day) was 1%. For the same compound, the “ERYTHROCYTE COUNT” value (120 h, time 5 day) was 5.73 x10E6/uL, the HEMATOCRIT (120 h, time 5 day) was 36.85% and the HEMOGLOBIN (120 h, time 5 day) was 13.67 G/DL. The “LEUKOCYTE COUNT” value (120 h, time 5 day) was 15.13 x10E3/uL, the LYMPHOCYTE (120 h, time 5 day) was 89.5% and the “MEAN CORPUSCULAR HEMOGLOBIN” value (120 h, time 5 day) was 23.87 pg. For the same compound, the “MEAN CORPUSCULAR HEMOGLOBIN CONCENTRATION” value (120 h, time 5 day) was 37.1 G/DL, the “MEAN CORPUSCULAR VOLUME” value (120 h, time 5 day) was 64.33 fL and the MONOCYTE (120 h, time 5 day) was 2.33%. The NEUTROPHIL (120 h, time 5 day) was 7.17%, the “NUCLEATED RED BLOOD CELLS” value (120 h, time 5 day) was 0.17 /100WBC and the “PLATELET COUNT” value (120 h, time 5 day) was 1266 x10E3/uL. For the same compound, the “ALANINE AMINOTRANSFERASE” value (120 h, time 5 day) was 49.17 u/L, the ALBUMIN (120 h, time 5 day) was 4.22 G/DL and the “ALKALINE PHOSPHATASE” value (120 h, time 5 day) was 352.67 u/L. For the same compound, the “ASPARTATE AMINOTRANSFERASE” value (120 h, time 5 day) was 95.17 u/L, the “BLOOD UREA NITROGEN” value (120 h, time 5 day) was 18.83 mg/dL and the “CARBON DIOXIDE” value (120 h, time 5 day) was 25.67 mmol/L. For the same compound, the CHLORIDE (120 h, time 5 day) was 102.67 MEQ/L, the CHOLESTEROL (120 h, time 5 day) was 66.83 mg/dL and the “CREATINE PHOSPHOKINASE” value (120 h, time 5 day) was 550.33 u/L. The CREATININE (120 h, time 5 day) was 0.23 mg/dL, the GLUCOSE (120 h, time 5 day) was 186.17 mg/dL and the “LACTATE DEHYDROGENASE” value (120 h, time 5 day) was 471.33 u/L. It also gave an LIPASE (120 h, time 5 day) of 8.67 u/L, a PHOSPHORUS (120 h, time 5 day) of 12.3 mg/dL and a POTASSIUM (120 h, time 5 day) of 6.35 MEQ/L. The SODIUM (120 h, time 5 day) was 143.57 MEQ/L, the “TOTAL BILIRUBIN” value (120 h, time 5 day) was 0.18 mg/dL and the “TOTAL PROTEIN” value (120 h, time 5 day) was 6.05 G/DL. For the same compound, the “URIC ACID” value (120 h, time 5 day) was 2 mg/dL.

Source: ChEMBL document CHEMBL3885881, “DrugMatrix”
